These are literature values, as cited in patent US5750504A, “Antimicrobial proteins” (Zeneca Agrochemicals, priority 1996, dated 1998).

Where no end group is shown, it is not given here.

One data set has as its system fungi. The settings on record: Rs-AFP-type proteins of WO93/05153; cited from earlier work.
Data set [1] relates to hyphae of Fusarium culmorum. The settings on record: Terras FRG et al, 1992; cited from earlier work.

Take “Cb-AMP1: antimicrobial protein capable of isolation from Cnicus benedictus, SEQ ID NO 6 (ELCEKASKTWSGNCGNTKHCDDQCKSWEGAAHGACHVRNGKHMCFCYFNC; ends and bridges not checked; cysteine pairing not given here)”: the hyperbranching of fungi result with fungi is recorded as “do not”. As to “Rs-AFP2: antifungal protein from Raphanus sativus seeds, SEQ ID NO 4 (ZKLCQRPSGTWSGVCGNNNACKNQCIRLEKARHGSCNYVFPAHKCICYFPC)”, the hyperbranching of fungi result in the data set on fungi was “cause hyperbranching”. Moreover, in data set [1], the “hyper-branching of hyphae of Fusarium culmorum” value is “A similar effect”. Turning to “Dm-AMP1: antimicrobial protein capable of isolation from Dahlia merckii, SEQ ID NO 5 (ELCEKASKTWSGNCGNTGHCDNQCKSWEGAAHGACHVRNGKHMCFCYFNC; ends and bridges not checked; cysteine pairing not given here)”, in the data set with fungi, the hyperbranching of fungi entry is recorded as “do not”. As for “Rs-AFP1: antifungal protein from Raphanus sativus seeds, SEQ ID NO 3 (ZKLCERPSGTWSGVCGNNNACKNQCINLEKARHGSCNYVFPAHKCICYFPC)”, the hyperbranching of fungi entry in the data set on fungi is recorded as “cause hyperbranching”. Also, in data set [1], the “hyper-branching of hyphae of Fusarium culmorum” value is “A similar effect”.
